Source: publication PMC10124032, “Toosendanin targeting eEF2 impedes Topoisomerase I & II protein translation to suppress esophageal squamous cell carcinoma growth” (Journal of Experimental & Clinical Cancer Research : CR, 2023)

Key:
[1] = biological target: T1, eEF2 (eukaryotic translational elongation factor 2) (Homo sapiens, UniProt P13639); assay: SPR (Biacore T200); format: binding; design: eEF2 protein immobilized on a CM5 chip
[2] = biological target: T1, eEF2 (eukaryotic translational elongation factor 2); assay: ITC (KD […]); also SPR (KD […]), CETSA in KYSE510 and […] T cells, GTPase-Glo inhibition of purified eEF2; format: binding; design: eEF2-3 × Flag purified from 293 T cells

O=C(NCCN1CCCC1)c1cc(-c2ccc(CN3CCOCC3)cc2)nc2ccc(F)cc12 [DDD107498]
Kd [1]: 0.0541 µM

CC(=O)O[C@@H]1C[C@H](O)[C@@]23CO[C@@H](O)[C@]1(C)[C@@H]2C[C@@H](O)[C@]1(C)[C@@H]3C(=O)[C@H](OC(C)=O)[C@@]2(C)[C@H](c3ccoc3)C[C@H]3O[C@]321 [TSN, Toosendanin]
Kd [2]: ~0.0166 µM
